{"source": "patent US20090181975A1", "about": "“NEBIVOLOL IN THE TREATMENT OF SEXUAL DYSFUNCTION” (FOREST LABORATORIES HOLDINGS LIMITED, priority 2008, published 2009)", "key": {"anaesthetized dogs": {"tested_on": "anaesthetized dogs", "settings": "cited from earlier work"}, "anesthetized rats": {"tested_on": "anesthetized rats", "assay": "Erectile responses: intracavernosal pressure (ICP) increases to cavernosal nerve electrical stimulation", "type": "in vivo, rat (Sprague-Dawley)", "settings": "3 mg/kg i.v.", "procedure": "The effects of nebivolol administration on rat erectile function were studied. Erectile responses in rats were evaluated by measuring intracavernosal pressure (ICP) increases to cavernosal nerve electrical stimulation. To measure ICP, rats (Sprague-Dawley) were anesthetized with ketolar and diazepam. The surgical procedure included dissection and isolation of the right cavernous nerve through an abdominal midline incision and exposure of penile crura through a transverse perineal incision. ICP measurements were permitted by insertion of a 23-gauge needle into the right crus. The right carotid artery and left external jugular vein were catheterized for constant blood pressure measurement and saline infusion, respectively. Electrostimulation was performed with a delicate platinum bipolar hook electrode connected to a stimulator and current amplifier. Parameters of electrical stimulation included pulses with a duration of 0.3 ms and 1.5 mA of current intensity for 1 min. Frequency-response curves were performed by applying stimulation at 1, 3 and 10 Hz with a lapse of 3 min between each increase of frequency."}, "[1]": {"tested_on": "spontaneous hypertensive rats", "settings": "acute; cited from earlier work"}}}
{"smiles": "OC(CNCC(O)C1CCc2cc(F)ccc2O1)C1CCc2cc(F)ccc2O1", "note": "(racemic) [nebivolol, α,α′-iminobis(methylene)bis[6-fluoro-2-chromanmethanol]]", "values": [{"measurement": "effect on stroke volume", "setting": "anaesthetized dogs", "result": "augments stroke volume"}, {"measurement": "effect on total peripheral vascular resistance", "setting": "anaesthetized dogs", "result": "decreases total peripheral vascular resistance"}, {"measurement": "effect on erectile responses to CNES", "setting": "anesthetized rats", "result": "significantly potentiated"}, {"measurement": "AUC of ICP at 3 Hz", "setting": "anesthetized rats; control 1612±294, p<0.05", "result": "2544±440", "unit": "mmHg×s"}, {"measurement": "effect on blood pressure", "setting": "[1]", "result": "acutely lowers blood pressure"}]}
